The NIST ThermoML archive (doi:10.1021/je400722h)
± gives the expanded uncertainty stated by the source.

Experiments:
[1] = xn = mol fraction of the nth substance listed; settings: 101 kPa, Liquid; for speed of sound: Pulse-echo method; for mass density: Vibrating tube method
[2] = molar heat capacity at constant pressure; xn = mol fraction of the nth substance listed; settings: 101 kPa, Liquid, Small sample (50 mg) DSC

Cc1ccccc1Cl [2-chlorotoluene] + C1COCO1
Settings	mass density [kg/m3]	molar heat capacity at constant pressure [J/K/mol]	speed of sound [m/s]
[1], 298.15 K, x1 = 0.0902	1061.1 ± 1	–	1326.8 ± 1.1
[1], 298.15 K, x1 = 0.1536	1062.6 ± 1	–	1320 ± 1.1
[1], 298.15 K, x1 = 0.2167	1064 ± 1	–	1314.3 ± 1.1
[1], 298.15 K, x1 = 0.2734	1065.2 ± 1	–	1310.1 ± 1.1
[1], 298.15 K, x1 = 0.3169	1066.1 ± 1	–	1307.4 ± 1.1
[1], 298.15 K, x1 = 0.3843	1067.5 ± 1	–	1303.8 ± 1.1
[1], 298.15 K, x1 = 0.4301	1068.4 ± 1	–	1301.9 ± 1.1
[1], 298.15 K, x1 = 0.4831	1069.4 ± 1	–	1300.1 ± 1.1
[1], 298.15 K, x1 = 0.5278	1070.2 ± 1	–	1298.9 ± 1.1
[1], 298.15 K, x1 = 0.5834	1071.2 ± 1	–	1297.8 ± 1.1
[1], 298.15 K, x1 = 0.6265	1071.9 ± 1	–	1297.3 ± 1.1
[1], 298.15 K, x1 = 0.6793	1072.7 ± 1	–	1296.8 ± 1.1
[1], 298.15 K, x1 = 0.7315	1073.6 ± 1	–	1296.6 ± 1.2
[1], 298.15 K, x1 = 0.7829	1074.4 ± 1	–	1296.7 ± 1.2
[1], 298.15 K, x1 = 0.8242	1075 ± 1	–	1296.9 ± 1.2
[1], 298.15 K, x1 = 0.8565	1075.4 ± 1	–	1297.1 ± 1.2
[1], 298.15 K, x1 = 0.9013	1076 ± 1	–	1297.5 ± 1.2
[1], 298.15 K, x1 = 0.9325	1076.5 ± 1	–	1297.8 ± 1.2
[1], 298.15 K, x1 = 1	1077.3 ± 1	–	1298.7 ± 1.2
[1], 303.15 K, x1 = 0.0902	1054.9 ± 1	–	1304.4 ± 1.1
[1], 303.15 K, x1 = 0.1536	1056.4 ± 1	–	1297.8 ± 1.1
[1], 303.15 K, x1 = 0.2167	1057.9 ± 1	–	1292.5 ± 1.1
[1], 303.15 K, x1 = 0.2734	1059.3 ± 1	–	1288.8 ± 1.1
[1], 303.15 K, x1 = 0.3169	1060.2 ± 1	–	1286.4 ± 1.1
[1], 303.15 K, x1 = 0.3843	1061.7 ± 1	–	1283.5 ± 1.1
[1], 303.15 K, x1 = 0.4301	1062.7 ± 1	–	1281.9 ± 1.1
[1], 303.15 K, x1 = 0.4831	1063.7 ± 1	–	1280.3 ± 1.1
[1], 303.15 K, x1 = 0.5278	1064.6 ± 1	–	1279.3 ± 1.1
[1], 303.15 K, x1 = 0.5834	1065.7 ± 1	–	1278.4 ± 1.1
[1], 303.15 K, x1 = 0.6265	1066.5 ± 1	–	1277.9 ± 1.1
[1], 303.15 K, x1 = 0.6793	1067.4 ± 1	–	1277.4 ± 1.1
[1], 303.15 K, x1 = 0.7315	1068.3 ± 1	–	1277.3 ± 1.2
[1], 303.15 K, x1 = 0.7829	1069.1 ± 1	–	1277.4 ± 1.2
[1], 303.15 K, x1 = 0.8242	1069.8 ± 1	–	1277.6 ± 1.2
[1], 303.15 K, x1 = 0.8565	1070.3 ± 1	–	1277.8 ± 1.2
[1], 303.15 K, x1 = 0.9013	1071 ± 1	–	1278.5 ± 1.2
[1], 303.15 K, x1 = 0.9325	1071.5 ± 1	–	1279 ± 1.2
[1], 303.15 K, x1 = 1	1072.5 ± 1	–	1280.7 ± 1.2
[1], 308.15 K, x1 = 0.0902	1048.7 ± 1	–	1281.7 ± 1.1
[1], 308.15 K, x1 = 0.1536	1050.4 ± 1	–	1275.2 ± 1.1
[1], 308.15 K, x1 = 0.2167	1052 ± 1	–	1270.4 ± 1.1
[1], 308.15 K, x1 = 0.2734	1053.4 ± 1	–	1267 ± 1.1
[1], 308.15 K, x1 = 0.3169	1054.4 ± 1	–	1265.1 ± 1.1
[1], 308.15 K, x1 = 0.3843	1055.9 ± 1	–	1262.7 ± 1.1
[1], 308.15 K, x1 = 0.4301	1057 ± 1	–	1261.4 ± 1.1
[1], 308.15 K, x1 = 0.4831	1058.1 ± 1	–	1260.3 ± 1.1
[1], 308.15 K, x1 = 0.5278	1059 ± 1	–	1259.6 ± 1.1
[1], 308.15 K, x1 = 0.5834	1060.2 ± 1	–	1258.7 ± 1.1
[1], 308.15 K, x1 = 0.6265	1061 ± 1	–	1258.3 ± 1.1
[1], 308.15 K, x1 = 0.6793	1062 ± 1	–	1258 ± 1.1
[1], 308.15 K, x1 = 0.7315	1063 ± 1	–	1257.8 ± 1.1
[1], 308.15 K, x1 = 0.7829	1063.9 ± 1	–	1257.9 ± 1.2
[1], 308.15 K, x1 = 0.8242	1064.7 ± 1	–	1258.1 ± 1.2
[1], 308.15 K, x1 = 0.8565	1065.2 ± 1	–	1258.5 ± 1.2
[1], 308.15 K, x1 = 0.9013	1066 ± 1	–	1259.3 ± 1.2
[1], 308.15 K, x1 = 0.9325	1066.5 ± 1	–	1260.1 ± 1.2
[1], 308.15 K, x1 = 1	1067.6 ± 1	–	1262.7 ± 1.2
[2], 298.15 K, x1 = 0.0865	–	127.97 ± 2	–
[2], 298.15 K, x1 = 0.1145	–	129.85 ± 2	–
[2], 298.15 K, x1 = 0.1386	–	131.45 ± 2	–
[2], 298.15 K, x1 = 0.1829	–	134.37 ± 2.1	–
[2], 298.15 K, x1 = 0.2145	–	136.42 ± 2.1	–
[2], 298.15 K, x1 = 0.2573	–	139.17 ± 2.2	–
[2], 298.15 K, x1 = 0.2965	–	141.65 ± 2.2	–
[2], 298.15 K, x1 = 0.3217	–	143.22 ± 2.2	–
[2], 298.15 K, x1 = 0.3506	–	144.99 ± 2.2	–
[2], 298.15 K, x1 = 0.3902	–	147.38 ± 2.3	–
[2], 298.15 K, x1 = 0.4216	–	149.24 ± 2.3	–
[2], 298.15 K, x1 = 0.4654	–	151.78 ± 2.4	–
[2], 298.15 K, x1 = 0.5007	–	153.78 ± 2.4	–
[2], 298.15 K, x1 = 0.5418	–	156.06 ± 2.4	–
[2], 298.15 K, x1 = 0.5905	–	158.68 ± 2.5	–
[2], 298.15 K, x1 = 0.6218	–	160.32 ± 2.5	–
[2], 298.15 K, x1 = 0.663	–	162.44 ± 2.5	–
[2], 298.15 K, x1 = 0.6902	–	163.81 ± 2.5	–
[2], 298.15 K, x1 = 0.7118	–	164.88 ± 2.5	–
[2], 298.15 K, x1 = 0.7534	–	166.91 ± 2.6	–
[2], 298.15 K, x1 = 0.7927	–	168.78 ± 2.6	–
[2], 298.15 K, x1 = 0.8426	–	171.11 ± 2.6	–
[2], 298.15 K, x1 = 0.8914	–	173.35 ± 2.7	–
[2], 298.15 K, x1 = 0.9206	–	174.66 ± 2.7	–
[2], 303.15 K, x1 = 0.0865	–	129.15 ± 2	–
[2], 303.15 K, x1 = 0.1145	–	131.07 ± 2	–
[2], 303.15 K, x1 = 0.1386	–	132.71 ± 2.1	–
[2], 303.15 K, x1 = 0.1829	–	135.68 ± 2.1	–
[2], 303.15 K, x1 = 0.2145	–	137.77 ± 2.1	–
[2], 303.15 K, x1 = 0.2573	–	140.56 ± 2.2	–
[2], 303.15 K, x1 = 0.2965	–	143.06 ± 2.2	–
[2], 303.15 K, x1 = 0.3217	–	144.65 ± 2.2	–
[2], 303.15 K, x1 = 0.3506	–	146.45 ± 2.3	–
[2], 303.15 K, x1 = 0.3902	–	148.87 ± 2.3	–
[2], 303.15 K, x1 = 0.4216	–	150.75 ± 2.3	–
[2], 303.15 K, x1 = 0.4654	–	153.32 ± 2.4	–
[2], 303.15 K, x1 = 0.5007	–	155.35 ± 2.4	–
[2], 303.15 K, x1 = 0.5418	–	157.66 ± 2.4	–
[2], 303.15 K, x1 = 0.5905	–	160.33 ± 2.5	–
[2], 303.15 K, x1 = 0.6218	–	162.01 ± 2.5	–
[2], 303.15 K, x1 = 0.663	–	164.17 ± 2.5	–
[2], 303.15 K, x1 = 0.6902	–	165.56 ± 2.6	–
[2], 303.15 K, x1 = 0.7118	–	166.65 ± 2.6	–
[2], 303.15 K, x1 = 0.7534	–	168.72 ± 2.6	–
[2], 303.15 K, x1 = 0.7927	–	170.62 ± 2.6	–
[2], 303.15 K, x1 = 0.8426	–	172.98 ± 2.7	–
[2], 303.15 K, x1 = 0.8914	–	175.22 ± 2.7	–
[2], 303.15 K, x1 = 0.9206	–	176.53 ± 2.7	–
[2], 308.15 K, x1 = 0.0865	–	130.3 ± 2	–
[2], 308.15 K, x1 = 0.1145	–	132.27 ± 2	–
[2], 308.15 K, x1 = 0.1386	–	133.94 ± 2.1	–
[2], 308.15 K, x1 = 0.1829	–	136.97 ± 2.1	–
[2], 308.15 K, x1 = 0.2145	–	139.09 ± 2.1	–
[2], 308.15 K, x1 = 0.2573	–	141.91 ± 2.2	–
[2], 308.15 K, x1 = 0.2965	–	144.45 ± 2.2	–
[2], 308.15 K, x1 = 0.3217	–	146.05 ± 2.3	–
[2], 308.15 K, x1 = 0.3506	–	147.87 ± 2.3	–
[2], 308.15 K, x1 = 0.3902	–	150.31 ± 2.3	–
[2], 308.15 K, x1 = 0.4216	–	152.22 ± 2.4	–
[2], 308.15 K, x1 = 0.4654	–	154.82 ± 2.4	–
[2], 308.15 K, x1 = 0.5007	–	156.88 ± 2.4	–
[2], 308.15 K, x1 = 0.5418	–	159.23 ± 2.5	–
[2], 308.15 K, x1 = 0.5905	–	161.94 ± 2.5	–
[2], 308.15 K, x1 = 0.6218	–	163.64 ± 2.5	–
[2], 308.15 K, x1 = 0.663	–	165.83 ± 2.6	–
[2], 308.15 K, x1 = 0.6902	–	167.25 ± 2.6	–
[2], 308.15 K, x1 = 0.7118	–	168.36 ± 2.6	–
[2], 308.15 K, x1 = 0.7534	–	170.46 ± 2.6	–
[2], 308.15 K, x1 = 0.7927	–	172.38 ± 2.7	–
[2], 308.15 K, x1 = 0.8426	–	174.76 ± 2.7	–
[2], 308.15 K, x1 = 0.8914	–	177 ± 2.7	–
[2], 308.15 K, x1 = 0.9206	–	178.31 ± 2.8	–
